# Test results: patent US9233978B2, “6-fused heteroaryldihydropyrimidines for the treatment and prophylaxis of hepatitis B virus infection” (Hoffmann-La Roche Inc., priority 2014, dated 2016)
# Read-outs that look alike come from different tables or passages of the source.
# Experiments:
# [1] = tested on: HBV; conditions: HBV infected transgenic mouse or humanized mouse models; cited from earlier work
# [2] = Lysa solubility; type: physicochemical; conditions: 0.05 M phosphate buffer (pH 6.5); for solubility thermodynamic: phosphate buffer, pH 6.5, aqueous buffer, thermodynamic from solid
# Procedure, shortened: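 Duplicate samples dried from 10 mM DMSO stocks, taken up in 0.05 M phosphate buffer pH 6.5, stirred 1 h, shaken 2 h and left overnight. Filtrate and 1/10 dilution quantified by direct UV or HPLC-UV, in μg/mL; above 80% of the calculated maximum, reported as greater than that value.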
# [3] = tested on: HBV; assay: Anti-HBV activity in vitro, HepG2.2.15 cells, extracellular HBV DNA by qPCR; type: cell-based; conditions: HepG2.2.15 cells, HBV replication inhibited by 50%, extracellular HBV DNA by qPCR, five days after compound treatment, read-out: EC50
# Procedure, shortened: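 HBV-producing HepG2.2.15 cells were seeded and left overnight at 37 °C, then treated with half-log serial compound dilutions at a final 0.5% DMSO. After 5 days, viral DNA was extracted from the supernatant and extracellular HBV DNA was quantified by qPCR.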
# [4] = Human microsomal metabolic stability; type: in vitro ADME; conditions: human microsomes 0.5 mg/mL, 1 μM test compound, NADPH, 37° C., pH 7.4, 0-30 minutes
# Procedure, shortened: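 1 μM compound with 0.5 mg/mL human liver microsomal protein in 100 mM phosphate pH 7.4 at 37° C, started with 1 mM NADPH or a NADPH-regenerating system. Sampled at 0–30 min, quenched in cold methanol with tolbutamide internal standard; remaining parent quantified by LC-MS/MS.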
# [5] = Cytotoxicity in HepDE19 cells (CCK-8) and selectivity index; type: cell-based; conditions: human, HepDE19 cells; CCK-8 cell viability; five days after treatment
# Procedure, shortened: (§1)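 HepDE19 cells (DMEM-F12, 10% FBS) were treated with compound for five days, then given CCK-8 for 2 h at 37 °C and read at OD450 and OD630. CC50 is the concentration killing 50% of host cells. Selectivity index is CC50/EC50.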
# [6] = tested on: HepDE19 cells; assay: as above; type: cell-based; conditions: CC50 (HepDE19) value / EC50 (HepG2.2.15) value
# Procedure, shortened: as §1
# [7] = tested on: CYP3A4; assay: Cytochrome P450 induction screening assay, mRNA induction in human cryopreserved hepatocytes; type: in vitro ADME; conditions: CYP3A4 mRNA relative induction, 24 hours, test compound up to 10 μM
# Procedure: Human cryopreserved hepatocytes (Life Technologies, Carlsbad, USA) were thawed and cultured in collagen I coated 96-well plates with a density of 52,000 cells/well. After attachment, medium was changed and cells were pre-cultured overnight in hepatocyte maintenance medium (HMM; Lonza, Switzerland).
# Test compounds were dosed to the cells next morning at an indicated concentration (up to 10 μM) in HMM culture media containing gentamycin and a constant 0.1% DMSO. Similarly, dilutions of the positive inducer compounds omeprazole (prototypical inducer of human CYP1A2; final concentrations: 1 and 10 μM), phenobarbital (prototypical inducer of human CYP2B6; final concentrations: 100 and 1000 μM) and rifampicin (prototypical inducer of human CYP3A4; final concentrations: 1 and 10 μM) were prepared from 1000 fold DMSO stock solutions in HMM containing gentamycin. Medium change was then performed and cells were exposed for 24 hours to test compounds, positive inducer compounds, or vehicle (0.1% DMSO), respectively.
# At the end of the compound exposure period, medium was removed and cells lysed using 100 μL/well MagNA Pure LC RNA isolation tissue lysis buffer (Roche Diagnostics AG, Rotkreuz, Switzerland). Plates were then sealed and frozen at −80° C. until further workup.
# mRNA isolation was performed using the MagNA Pure 96 system (Roche Diagnostics AG, Rotkreuz, Switzerland) and the respective cellular RNA large volume kit (Roche Diagnostics AG, Rotkreuz, Switzerland) from thawed samples diluted 1:1 with PBS. The volume of the cell lysis and an elution volume of 100 μL were used. 20 μl of the resulting mRNA suspension was then used for reverse transcription using 20 μl of the transcript or first stand cDNA synthesis kit (Roche prime Supply, Mannheim, Germany). The resulting cDNA was diluted with 40 μl of H2O before using for qRT-PCR. qRT-PCR was performed by using the forward and the reverse primer, the corresponding UPL (all from Microsynth, Balgach, Switzerland) and the Taqman Fast advanced master mix (Applied Biosystems), on an ABI 7900 machine (Applied Biosystems).
# qRT-PCR Ct-values for the respective P450s were put into relation to the Ct-value of RN18S1 (microsynth, Balgach, Switzerland) of the same sample. Doing so, a respective Δct-value was calculated. Using the average of all Δct-values for the vehicle control samples, a ΔΔct-value was calculated for each sample (ΔΔct-value(sample)=Δct-value(sample)−average of Δct-value of all vehicle controls). The fold induction of the respective sample was calculated as 2^(−ΔΔct). The individual fold induction values were then averaged per treatment condition (usually n=3 biological replicates).
# Relative induction values to the respective positive inducer compound condition (10 μM omeprazole for CYP1A2; 1000 μM Phenobarbital for CYP2B6; 10 μM rifampicin for CYP3A4) were then calculated from the fold induction values as follows: Relative induction (%)=100×(T−V)/(P−V)
# [8] = Hepatitis B virus, HepG2.2.15, 120 h
SMILES,in vivo efficacy (HBV DNA reduction) [1],solubility thermodynamic [2] [µg/mL],"EC50 [3, 8] [nM]",Human Microsomal Clearance [4] [mL/min/kg],CC50 at 5 days [5] [nM],Selectivity index (CC50/EC50) [6],% of Positive control (10 μM Rifampicin) [7] [%],Lysa [2] [µg/mL],EC50 [3] [nM]
COC(=O)C1=C(C)NC(c2ncc(F)cc2F)=N[C@H]1c1ccc(F)cc1Cl [Bay 41-4109],demonstrated in vivo efficacy with HBV DNA reduction,,,,,,,,
"COC(=O)C1=C(CN2CCN3C(=O)N(CC4(C(=O)O)CCC4)C[C@@H]3C2)NC(c2nccs2)=N[C@H]1c1ccc(F)cc1Cl [Example 59, (R)-6-[(S)-2-(1-Carboxy-cyclobutylmethyl)-3-oxo-hexahydro-imidazo[1,5-a]pyrazin-7-ylmethyl]-4-(2-chloro-4-fluoro-phenyl)-2-thiazol-2-yl-1,4-dihydro-pyrimidine-5-carboxylic acid methyl ester]",,> 685,11,2.3,> 100000,>9091,2.2,,
"COC(=O)C1=C(CN2CCN3C(=O)N(C4CCC(C(=O)O)CC4)C[C@@H]3C2)NC(c2nccs2)=N[C@H]1c1ccc(F)cc1Cl (stereo partly drawn) [Example 73, 4-[(8aS)-7-[[(4R)-4-(2-chloro-4-fluoro-phenyl)-5-methoxycarbonyl-2-thiazol-2-yl-1,4-dihydropyrimidin-6-yl]methyl]-3-oxo-5,6,8,8a-tetrahydro-1H-imidazo[1,5-a]pyrazin-2-yl]cyclohexanecarboxylic acid]",,,,8.1,70000,7778,0,564,9
"CCOC(=O)C1=C(CN2CCN3C(=O)N(CC(C)(C)C(=O)O)C[C@@H]3C2)NC(c2nccs2)=N[C@H]1c1cccc(F)c1C [Example 76, 3-[(8aS)-7-[[(4S)-5-ethoxycarbonyl-4-(3-fluoro-2-methyl-phenyl)-2-thiazol-2-yl-1,4-dihydropyrimidin-6-yl]methyl]-3-oxo-5,6,8,8a-tetrahydro-1H-imidazo[1,5-a]pyrazin-2-yl]-2,2-dimethyl-propanoic acid]",,565,7,0.8,> 100000,>14286,1.3,,
